Earlier results as cited in patent publication US20260053727A1, “PERSONAL CARE COMPOSITIONS WITH ENZYME-MODIFIED OILS (EMOS)” (GLYCOSBIO INC., priority 2023, published 2026).

Conditions: commonly known

## O=C([O-])c1ccccc1.[Na+] [sodium benzoate]
  antimicrobial activity: weakly antimicrobial
